Like-named read-outs stand apart in the source and are kept apart here.
Tests used:
[1] = set-up: unit not given beside the values; details: mouse, in vivo, inhaled or intranasal
[2] = for Total drug levels (PS V plus its metabolites): plasma
[3] = tested on: GFP-A549 human lung cancer cells
Protocol: Experimental animals were held in nose-only air-tight tubes for designated time intervals.
Inhalation treatment was resumed 2 days post-surgery and continued for 6 weeks when mice were euthanized, and blood and lung tissues were collected. Luminosity of the GFP-A549 tumors was measured and the lungs were weighed.

lung cancer = details: curcumin as a single agent, pre-clinical models of lung cancer; cited from earlier work

In the case of `CC1=C(CC(=O)O)c2cc(F)ccc2/C1=C\c1ccc([S+](C)[O-])cc1` (stereo not drawn) [Sulindac, sulindac], the AUC [1] is reported as 30.1.

In the case of `CCOP(=O)(OCC)OCCCCOC(=O)CC1=C(C)/C(=C/c2ccc([S+](C)[O-])cc2)c2ccc(F)cc21` (stereo not drawn) [PS V, phospho-sulindac], the “level of intact PS V in the lungs” value ([2]; inhalational, 6.5 mg/kg body weight) is reported as over 20 nmol/g, the “level of intact PS V in the lungs” value ([2]; oral administration, 150 mg/kg body weight) is reported as under 2 nmol/g and the “Total drug levels (PS V plus its metabolites)” value ([2]; after inhalation treatment, 6.5 mg/kg) is reported as 17 µM. The “Total drug levels (PS V plus its metabolites)” value ([2]; after oral administration, 150 mg/kg) was 348 µM, the “tumor size by luminosity” value ([3]; at sacrifice, Mean±SEM, control = 19.85±4.33, p < 0.001) was 5.05±2.97 and the “tumor size by lung weight” value ([3]; at sacrifice, Mean±SEM, control = 385.7±85.2 mg, p < 0.001) was 204.4 ± 39.4 mg. For the same compound, the death rate ([3]; end of the study, aerosol of 50 mg/mL PS V for 8 min, control group 40 %, p < 0.03) was “less than 10%”.

For `COc1cc(/C=C/C(=O)CC(=O)/C=C/c2ccc(O)c(OC)c2)ccc1O` [curcumin], the efficacy (lung cancer) is given as under 30%.

Source: patent publication EP2711006A1, “Product Comprising a Nicotine-Containing Material and an Anti-Cancer Agent” (Rigas, Basil, priority 2012, dated 2014)
